Measured values from ChEMBL document CHEMBL3751834, “Insight to the binding mode of triazole RGD-peptidomimetics to integrin-rich cancer cells by NMR and molecular modeling” (Bioorg Med Chem, 2016).
pIC50: −log10 of the molar value. The source made the active and inactive calls. The calls are words filed in the database; no cut-off is given here.

Legend:
Integrin alpha-V/beta-3 [1] = target: T1, Integrin alpha-V/beta-3 (Homo sapiens, UniProt P05106+P06756); test: Binding affinity to integrin alphavbeta3 receptor in human ECV304 cells by STD-NMR analysis; format: cell-based; conditions: ECV-304
Integrin alpha-V/beta-3 [2] = target: T1, Integrin alpha-V/beta-3; test: Displacement of 125-I-echistatin from human placental integrin alphavbeta3 receptor incubated for 3 hrs by microplate scintillation counting analysis

O=C(O)C[C@H](NC(=O)Cn1cc(CCCNc2nc3ccccc3[nH]2)nn1)c1ccc(O)cc1
Activity (Integrin alpha-V/beta-3 [1]): Active

O=C(O)C[C@H](NC(=O)Cn1cc(CCCNc2ccccn2)nn1)c1ccccc1
Activity (Integrin alpha-V/beta-3 [1]): Active
IC50H (Integrin alpha-V/beta-3 [2]): 13 nM
IC50L (Integrin alpha-V/beta-3 [2]): 900 nM

O=C(O)C[C@H](NC(=O)Cn1cc(CCCNc2nc3ccccc3[nH]2)nn1)c1ccccc1
Activity (Integrin alpha-V/beta-3 [1]): Active
IC50H (Integrin alpha-V/beta-3 [2]): 12 nM
IC50L (Integrin alpha-V/beta-3 [2]): 1120 nM

N=C(N)NCCCc1cn(CC(=O)N[C@@H](CC(=O)O)c2ccccc2)nn1
Activity (Integrin alpha-V/beta-3 [1]): Active

O=C(O)C[C@H](NC(=O)Cn1cc(CCCNc2ccccn2)nn1)c1ccc(O)cc1
Activity (Integrin alpha-V/beta-3 [1]): Active
pIC50 (Integrin alpha-V/beta-3 [2]): 6.66

N=C(N)NCCCc1cn(CC(=O)N[C@@H](CC(=O)O)c2ccc(O)cc2)nn1
Activity (Integrin alpha-V/beta-3 [1]): Active
